The results in this text go back to patent US9371294B2, “Cycloalkenyl aryl derivatives for CETP inhibitor” (CHONG KUN DANG PHARMACEUTICAL CORP., priority 2011, dated 2016).

For orientation: IC50 means the concentration that inhibits the measured activity by half. The low end stands for greater potency, the high end for weaker potency.

SMILES strings stand for the structures.

The assay has as its target T1, cholesteryl ester transfer protein (Homo sapiens, UniProt P11597).
T1 construct: As a source of cholesteryl ester transfer protein, plasma from healthy humans was used; from tissue; host or cells: plasma from healthy humans
T1 sequence (P11597 18-493): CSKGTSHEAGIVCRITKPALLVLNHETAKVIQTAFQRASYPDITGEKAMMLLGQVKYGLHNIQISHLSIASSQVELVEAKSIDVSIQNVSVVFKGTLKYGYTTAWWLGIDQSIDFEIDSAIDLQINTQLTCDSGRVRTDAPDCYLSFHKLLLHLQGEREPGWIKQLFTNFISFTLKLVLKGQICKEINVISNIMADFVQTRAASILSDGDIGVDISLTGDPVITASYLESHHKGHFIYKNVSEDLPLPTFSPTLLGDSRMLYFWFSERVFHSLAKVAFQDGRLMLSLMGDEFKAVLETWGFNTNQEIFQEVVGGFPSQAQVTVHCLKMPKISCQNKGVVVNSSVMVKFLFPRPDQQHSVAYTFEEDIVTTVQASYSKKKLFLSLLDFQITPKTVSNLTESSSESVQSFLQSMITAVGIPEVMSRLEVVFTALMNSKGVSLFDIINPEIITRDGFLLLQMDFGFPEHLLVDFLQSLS
In words: In vitro test for the ability to inhibit cholesteryl ester transfer. It is filed as biochemical. As to conditions: [3H]-cholesteryl oleate transfer from rHDL-agarose to LDL; human plasma as CETP source; 37° C.; 16-10000 nM, duplicate. From the text: In Vitro Test for the Ability to Inhibit Cholesteryl Ester Transfer
1. Preparation of Cholesteryl Ester Donor
In order to prepare a cholesteryl ester donor to be used in the test, a radiolabeled recombinant HDL containing [^3H]-cholesteryl oleate (GE healthcare, TRK886, 3.5 μCi/mg of apoA-1) and apoA-1 was synthesized. Then, rHDL-agarose obtained by immobilizing the recombinant HDL with CNBr-activated Sepharose 4B resin (Amersham Biosciences, Sweden) was used in the test.
2. Cholesteryl Ester Transfer Test
As a source of cholesteryl ester transfer protein, plasma from healthy humans was used, and as cholesteryl ester receptor, LDL from healthy humans was used. Each of test compounds was added to be final concentrations of 16, 80, 400, 2000 and 10000 nM and tested in duplicate. In order to test cholesteryl ester transfer, 20 μl of plasma, 50 μl of LDL (0.25 mg/ml) and 50 μl of rHDL-agarose (0.25 mg/ml) were mixed with each other, and a solution of each test compound was added thereto and reacted thereto at 37° C. Then, the reaction solution was centrifuged at 4° C. for 3 minutes, thereby the reaction was stopped. 150 μl of the supernatant was transferred into a 96-well plate for radioactivity measurement, and the radioactivity thereof was measured with a beta-ray detector.
3. Statistical Processing
The ratio of [^3H]-cholesteryl oleate transferred from HDL to LDL was determined, and based on the determined ratio, the IC50 value of each compound was determined using GraphPad Prism 5.0.
With `COc1ccc(C(C)C)cc1C1=C(CN2C(=S)O[C@H](c3cc(C(F)(F)F)cc(C(F)(F)F)c3)[C@@H]2C)CC(C)(C)CC1` [Compound 15, (4S,5R)-5-(3,5-bis(trifluoromethyl)phenyl)-3-((2-(5-isopropyl-2-methoxyphenyl)-5,5-dimethylcyclohex-1-enyl)methyl)-4-methyloxazolidine-2-thione], half-maximal inhibition (IC50) required 600 nM.

Take `COc1cc(F)c(C(C)C)cc1C1=C(CN2C(=S)O[C@H](c3cc(C(F)(F)F)cc(C(F)(F)F)c3)[C@@H]2C)CC(C)(C)CC1` [Compound 17, (4S,5R)-5-(3,5-bis(trifluoromethyl)phenyl)-3-((2-(4-fluoro-5-isopropyl-2-methoxyphenyl)-5,5-dimethylcyclohex-1-enyl)methyl)-4-methyloxazolidine-2-thione]: the midpoint of inhibition, the IC50, lay at 510 nM.

In turn, `COc1ccccc1C1=C(CN2C(=O)O[C@H](c3cc(C(F)(F)F)cc(C(F)(F)F)c3)[C@@H]2C)CC(C)(C)CC1` [Compound 18, (4S,5R)-5-(3,5-bis(trifluoromethyl)phenyl)-3-((2-(2-methoxyphenyl)-5,5-dimethylcyclohex-1-enyl)methyl)-4-methyloxazolidin-2-one] came in with a 50% inhibitory concentration (IC50) of 1360 nM.

For the molecule `COc1cc(F)c(C(C)C)cc1C1=C(CN2C(=S)O[C@H](c3cc(C(F)(F)F)cc(C(F)(F)F)c3)[C@@H]2C)CC(C)CC1` (stereo partly drawn) [Compound 26, (4S,5R)-5-(3,5-bis(trifluoromethyl)phenyl)-3-((2-(4-fluoro-5-isopropyl-2-methoxyphenyl)-5-methylcyclohex-1-enyl)methyl)-4-methyloxazolidine-2-thione], half-maximal inhibition (IC50) was put at 920 nM.

Consider `COc1cc(F)c(C(C)C)cc1C1=C(CN2C(=O)O[C@H](c3cc(C(F)(F)F)cc(C(F)(F)F)c3)[C@@H]2C)CCCC1` [Compound 27, (4S,5R)-5-(3,5-bis(trifluoromethyl)phenyl)-3-((2-(4-fluoro-5-isopropyl-2-methoxyphenyl)cyclohex-1-enyl)methyl)-4-methyloxazolidin-2-one], for which it took 240 nM to reach half-maximal inhibition (IC50).

Consider `COc1cc(F)c(C(C)C)cc1C1=C(CN2C(=S)O[C@H](c3cc(C(F)(F)F)cc(C(F)(F)F)c3)[C@@H]2C)CCCC1` [Compound 28, (4S,5R)-5-(3,5-bis(trifluoromethyl)phenyl)-3-((2-(4-fluoro-5-isopropyl-2-methoxyphenyl)cyclohex-1-enyl)methyl)-4-methyloxazolidine-2-thione], for which the IC50 was determined as 390 nM.

In turn, `COc1ccc(C(C)C)cc1C1=C(CN2C(=O)O[C@H](c3cc(C(F)(F)F)cc(C(F)(F)F)c3)[C@@H]2C)CCC(C)(C)C1` [Compound 44, (4S,5R)-5-(3,5-bis(trifluoromethyl)phenyl)-3-((2-(5-isopropyl-2-methoxyphenyl)-4,4-dimethylcyclohex-1-enyl)methyl)-4-methyloxazolidin-2-one] registered an IC50 of 430 nM.

Molecule `COc1ccc(C=O)cc1C1=C(CN2C(=O)O[C@H](c3cc(C(F)(F)F)cc(C(F)(F)F)c3)[C@@H]2C)CCCC1` [Compound 79, 3-(2-(((4S,5R)-5-(3,5-bis(trifluoromethyl)phenyl)-4-methyl-2-oxooxazolidin-3-yl)methyl)cyclohex-1-enyl)-4-methoxybenzaldehyde] displayed an IC50 of 890 nM.

`COc1ccc(C(C)O)cc1C1=C(CN2C(=O)O[C@H](c3cc(C(F)(F)F)cc(C(F)(F)F)c3)[C@@H]2C)CCCC1` (stereo partly drawn) [Compound 80, (4S,5R)-5-(3,5-bis(trifluoromethyl)phenyl)-3-((2-(5-(1-hydroxyethyl)-2-methoxyphenyl)cyclohex-1-enyl)methyl)-4-methyloxazolidin-2-one] came in with an IC50 of 100 nM.

`COc1ccc(C(C)(C)O)cc1C1=C(CN2C(=O)O[C@H](c3cc(C(F)(F)F)cc(C(F)(F)F)c3)[C@@H]2C)CCCC1` [Compound 82, (4S,5R)-5-(3,5-bis(trifluoromethyl)phenyl)-3-((2-(5-(2-hydroxypropan-2-yl)-2-methoxyphenyl)cyclohex-1-enyl)methyl)-4-methyloxazolidin-2-one] yielded an IC50 of 80 nM.

For the molecule `COc1ccc(N(C)C(=O)C(C)C)cc1C1=C(CN2C(=O)O[C@H](c3cc(C(F)(F)F)cc(C(F)(F)F)c3)[C@@H]2C)CCCC1` [Compound 86, N-(3-(2-(((4S,5R)-5-(3,5-bis(trifluoromethyl)phenyl)-4-methyl-2-oxooxazolidin-3-yl)methyl)cyclohex-1-enyl)-4-methoxyphenyl)-N-methylisobutyramide], the IC50 amounted to 110 nM.

The molecule `COc1cc(F)c(C(C)C)cc1C1=C(CN2C(=O)O[C@H](c3cc(C(F)(F)F)cc(C(F)(F)F)c3)[C@@H]2C)CC(C(C)(C)C)CC1` (stereo partly drawn) [Compound 101, (4S,5R)-5-(3,5-bis(trifluoromethyl)phenyl)-3-((5-tert-butyl-2-(4-fluoro-5-isopropyl-2-methoxyphenyl)cyclohex-1-enyl)methyl)-4-methyloxazolidin-2-one] displayed an IC50 of 70 nM.

Molecule `COc1ccc(C(C)O)cc1C1=C(CN2C(=O)O[C@H](c3cc(C(F)(F)F)cc(C(F)(F)F)c3)[C@@H]2C)CC(C)(C)CC1` (stereo partly drawn) [Compound 103, (4S,5R)-5-(3,5-bis(trifluoromethyl)phenyl)-3-((2-(5-(1-hydroxyethyl)-2-methoxyphenyl)-5,5-dimethylcyclohex-1-enyl)methyl)-4-methyloxazolidin-2-one] displayed a concentration for half-maximal inhibition (IC50) of 30 nM.

Molecule `COc1ccc(C(C)(C)O)cc1C1=C(CN2C(=O)O[C@H](c3cc(C(F)(F)F)cc(C(F)(F)F)c3)[C@@H]2C)CC(C)(C)CC1` [Compound 104, (4S,5R)-5-(3,5-bis(trifluoromethyl)phenyl)-3-((2-(5-(2-hydroxypropan-2-yl)-2-methoxyphenyl)-5,5-dimethylcyclohex-1-enyl)methyl)-4-methyloxazolidin-2-one] gave a half-inhibitory concentration (IC50) of 180 nM.

As for `COc1ccc(C(C)C)cc1C1=C(CN2C(=O)O[C@H](c3cc(C(F)(F)F)cc(C(F)(F)F)c3)[C@@H]2C)CC(C)(C)CC1` [Compound 107, (4S,5R)-5-(3,5-bis(trifluoromethyl)phenyl)-3-((2-(5-isopropyl-2-methoxyphenyl)-5,5-dimethylcyclohex-1-enyl)methyl)-4-methyloxazolidin-2-one], the IC50 is 4 nM.

For the molecule `COc1cc(F)c(C(C)C)cc1C1=C(CN2C(=O)O[C@H](c3cc(C(F)(F)F)cc(C(F)(F)F)c3)[C@@H]2C)CCC(C)(C)C1` [Compound 109, (4S,5R)-5-(3,5-bis(trifluoromethyl)phenyl)-3-((2-(4-fluoro-5-isopropyl-2-methoxyphenyl)-4,4-dimethylcyclohex-1-enyl)methyl)-4-methyloxazolidin-2-one], the IC50 was 20 nM.

For `COc1ccc(NC(C)=O)cc1C1=C(CN2C(=O)O[C@H](c3cc(C(F)(F)F)cc(C(F)(F)F)c3)[C@@H]2C)CC(C)(C)CC1` [Compound 110, N-(3-(2-(((4S,5R)-5-(3,5-bis(trifluoromethyl)phenyl)-4-methyl-2-oxooxazolidin-3-yl)methyl)-4,4-dimethylcyclohex-1-enyl)-4-methoxyphenyl)acetamide], it took 230 nM to reach half-maximal inhibition (IC50).

Turning to `COc1ccc(OC(F)(F)F)cc1C1=C(CN2C(=O)O[C@H](c3cc(C(F)(F)F)cc(C(F)(F)F)c3)[C@@H]2C)CC(C)(C)CC1` [Compound 117, (4S,5R)-5-(3,5-bis(trifluoromethyl)phenyl)-3-((2-(2-methoxy-5-(trifluoromethoxy)phenyl)-5,5-dimethylcyclohex-1-enyl)methyl)-4-methyloxazolidin-2-one], half-maximal inhibition (IC50) was put at 80 nM.
